Assay [1] concerns Nucleic Acid. Description: Induction of supercoiled pDesR3 DNA cleavage at 10 uM after 2 to 12 hrs by agarose gel electrophoresis. Format: nucleic-acid assay.
The subject of assay [2] is Nucleic Acid. The assay is described as follows: Induction of single strand cleavage in supercoiled pDesR3 DNA at 10 uM after 2 to 12 hrs by agarose gel electrophoresis in presence of equimolar Cu(OAc)2. In kind it is nucleic-acid assay.
In assay [3] the test system is Nucleic Acid. The assay is described as follows: Induction of single strand cleavage in supercoiled pDesR3 DNA at 10 uM after 3 hrs by agarose gel electrophoresis in presence of equimolar Cu(OAc)2 and catalase. Format: nucleic-acid assay.
Assay [4] has as its system Nucleic Acid. The assay is described as follows: Induction of single strand cleavage in supercoiled pDesR3 DNA at 10 uM after 3 hrs by agarose gel electrophoresis in presence of equimolar Cu(OAc)2 and EDTA. In kind it is nucleic-acid assay.
For assay [5], the system named is Nucleic Acid. The assay is described as follows: Induction of single strand cleavage in supercoiled pDesR3 DNA at 10 uM after 3 hrs by agarose gel electrophoresis in presence of equimolar Cu(OAc)2 and SOD. In kind it is nucleic-acid assay.
In assay [6] the test system is Nucleic Acid. The assay is described as follows: Induction of single strand cleavage in supercoiled pDesR3 DNA at 10 uM after 3 hrs by agarose gel electrophoresis in presence of equimolar Cu(OAc)2 and NaN3. Format: nucleic-acid assay.
Assay [7] relates to Nucleic Acid. The assay is described as follows: Induction of single strand cleavage in supercoiled pDesR3 DNA at 10 uM after 3 hrs by agarose gel electrophoresis in presence of equimolar Cu(OAc)2 and t-BuOH. Format: nucleic-acid assay.
Assay [8] relates to Nucleic Acid. Description: Induction of single strand cleavage in supercoiled pDesR3 DNA at 10 uM after 3 hrs by agarose gel electrophoresis in presence of equimolar Cu(OAc)2 and DMSO. In kind it is nucleic-acid assay.
Assay [9] concerns Nucleic Acid. Description: Induction of double strand cleavage in supercoiled pDesR3 DNA at 10 uM after 2 to 12 hrs by agarose gel electrophoresis in presence of equimolar Cu(OAc)2. Format: nucleic-acid assay.
The subject of assay [10] is Nucleic Acid. The assay is described as follows: Binding affinity at calf thymus DNA at 10 uM by UV-Vis spectrophotometer. In kind it is nucleic-acid assay. The settings on record: Bos taurus.
Assay [11] relates to Nucleic Acid. The assay is described as follows: Induction of single strand cleavage in laser-enhanced supercoiled pDesR3 DNA assessed as reduction in time required for single-strand break at 10 uM after 5 mins by agarose gel electrophoresis relative to control in presence of equimolar Cu(OAc)2. Format: nucleic-acid assay. Details: scale not given: the % may be the effect or the level left.

Assay [12] concerns Nucleic Acid. Description: Induction of supercoiled pDesR3 DNA cleavage assessed as half life of DNA cleavage after 2 to 12 hrs by agarose gel electrophoresis. Format: nucleic-acid assay.
Assay [13] deals with Nucleic Acid. Description: Induction of supercoiled pDesR3 DNA cleavage after 2 to 12 hrs by agarose gel electrophoresis. Format: nucleic-acid assay.
In another assay the test system is T47D. Description: Cytotoxicity against human T47D cells. In kind it is functional, cell-based.
A further assay concerns MDA-MB-435. Description: Cytotoxicity against human MDA-MB-435 cells. In kind it is functional, cell-based.

Activity calls are given as the source filed them. No cut-off for these calls is given here.

With `CC[C@H](C)[C@H]1C(=O)O[C@H]2c3cc(C)cc(O)c3C3=C(C(=O)c4c(O[C@H]5C[C@@H](O)[C@@H](O)[C@H](C)O5)cccc4C3=O)N12` [JADOMYCIN B], the outcome in the assay with Nucleic Acid [1], with Nucleic Acid [3], in the assay on Nucleic Acid [4], with Nucleic Acid [5], in the assay with Nucleic Acid [6] and in the assay on Nucleic Acid [7] was inactive. Also, the outcome in the assay with Nucleic Acid [8], in the assay on Nucleic Acid [9] and with Nucleic Acid [10] was inactive. Moreover, the outcome with Nucleic Acid [2] was Active. The Activity in the assay with Nucleic Acid [11] was 98%. Moreover, in the assay with Nucleic Acid [12], the T1/2 was 45 min. For the same compound, the EC50 in the assay with Nucleic Acid [13] came to 1.7 µM; in the assay on T47D, 9.92 µM; in the assay with MDA-MB-435, 6.89 µM.

The EC50 is the concentration at which the effect is half-maximal.
